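How tested: cells in 96-well plates exposed to compound for 48 hours at five concentrations. Here, GI50 denotes the concentration required for 50% inhibition of growth.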 Active and inactive are the calls of the source. Cut-off read from the data, not from the text of the source: active = GI50 up to about 1.1 µM and inactive = higher.
What was measured:
Experiment in all cases: NCI tumour cell line growth inhibition, 48 h
786-0 = tested on: 786-0
A549 = tested on: A549
DU-145 = tested on: DU-145
Hs-578T = tested on: Hs-578T
M14 = tested on: M14
MDA-MB-435 = tested on: MDA-MB-435
MDA-N = tested on: MDA-N
NCI-H460 = tested on: NCI-H460
OVCAR-3 = tested on: OVCAR-3
OVCAR-4 = tested on: OVCAR-4
OVCAR-5 = tested on: OVCAR-5
RPMI-8226 = tested on: RPMI-8226
SK-MEL-28 = tested on: SK-MEL-28
SK-OV-3 = tested on: SK-OV-3
SNB-19 = tested on: SNB-19
SR = tested on: SR
T47D = tested on: T47D
UACC-62 = tested on: UACC-62
HOP-92 = tested on: HOP-92

Measured: GI50

Cc1cc2nc3c(C#N)c4c(c(Nc5ccc(F)cc5)n3c2cc1C)CCC4
inactive: 786-0 > 100 µM | A549 > 100 µM | DU-145 > 100 µM | Hs-578T 70.5 µM | M14 > 100 µM | MDA-MB-435 > 100 µM | MDA-N > 100 µM | NCI-H460 > 100 µM | OVCAR-3 > 100 µM | OVCAR-4 > 100 µM | OVCAR-5 > 100 µM | RPMI-8226 > 100 µM | SK-MEL-28 > 100 µM | SK-OV-3 > 100 µM | SNB-19 > 100 µM | SR > 100 µM | T47D > 100 µM | UACC-62 > 100 µM

CCOP(=O)(OCC)C1CC(n2cc(C)c(=O)[nH]c2=O)OC1CO (configuration not stated)
inactive: 786-0 > 100 µM | A549 > 100 µM | DU-145 > 100 µM | HOP-92 > 100 µM | Hs-578T > 100 µM | M14 > 100 µM | MDA-N > 100 µM | NCI-H460 > 100 µM | OVCAR-3 > 100 µM | OVCAR-4 > 100 µM | OVCAR-5 83.4 µM | RPMI-8226 > 100 µM | SK-MEL-28 > 100 µM | SNB-19 > 100 µM | SR > 100 µM | T47D > 100 µM | UACC-62 > 100 µM

Cc1ccc(C)c2c1CC(Cc1ccccc1C(=O)O)C2=O (configuration not stated)
inactive: 786-0 > 100 µM | A549 > 100 µM | DU-145 > 100 µM | HOP-92 > 100 µM | Hs-578T > 100 µM | M14 > 100 µM | MDA-MB-435 > 100 µM | MDA-N > 100 µM | NCI-H460 > 100 µM | OVCAR-3 > 100 µM | OVCAR-4 > 100 µM | OVCAR-5 > 100 µM | SK-MEL-28 > 100 µM | SK-OV-3 > 100 µM | SNB-19 > 100 µM | T47D > 100 µM | UACC-62 > 100 µM

COC(=O)c1ccccc1C1CN=NC12Cc1cc(C)c(C)cc1C2=O (configuration not stated)
inactive: 786-0 63.1 µM | A549 37.8 µM | DU-145 > 100 µM | HOP-92 28 µM | Hs-578T 45.5 µM | M14 40.7 µM | MDA-MB-435 33.4 µM | MDA-N 33.7 µM | NCI-H460 44.1 µM | OVCAR-3 27.5 µM | OVCAR-4 29.6 µM | OVCAR-5 > 100 µM | SK-MEL-28 87.7 µM | SK-OV-3 40.3 µM | SNB-19 54.8 µM | T47D 31.8 µM | UACC-62 53 µM

COc1ccc(OC/C(N)=N/NC(=O)c2ccncc2)cc1
inactive: 786-0 > 100 µM | A549 > 100 µM | DU-145 > 100 µM | HOP-92 > 100 µM | Hs-578T > 100 µM | M14 > 100 µM | MDA-MB-435 > 100 µM | MDA-N > 100 µM | NCI-H460 > 100 µM | OVCAR-3 > 100 µM | OVCAR-4 > 100 µM | OVCAR-5 > 100 µM | RPMI-8226 > 100 µM | SK-MEL-28 > 100 µM | SK-OV-3 > 100 µM | SNB-19 > 100 µM | T47D > 100 µM | UACC-62 > 100 µM

O=C1C[C@H](c2ccccc2)O[C@@H](c2ccccc2)C1
inactive: 786-0 88.1 µM | A549 > 100 µM | DU-145 > 100 µM | HOP-92 > 100 µM | Hs-578T > 100 µM | M14 > 100 µM | MDA-MB-435 > 100 µM | MDA-N > 100 µM | NCI-H460 > 100 µM | OVCAR-3 > 100 µM | OVCAR-4 > 100 µM | OVCAR-5 > 100 µM | RPMI-8226 > 100 µM | SK-MEL-28 > 100 µM | SK-OV-3 > 100 µM | SNB-19 > 100 µM | T47D > 100 µM | UACC-62 > 100 µM

Cn1ccc(C(=O)NCCCCCNC(=O)c2ccn(C)c(=O)c2O)c(O)c1=O
inactive: 786-0 > 100 µM | A549 > 100 µM | DU-145 > 100 µM | HOP-92 > 100 µM | Hs-578T > 100 µM | MDA-MB-435 > 100 µM | MDA-N > 100 µM | NCI-H460 > 100 µM | OVCAR-4 > 100 µM | SK-MEL-28 > 100 µM | SNB-19 > 100 µM | SR > 100 µM | T47D > 100 µM | UACC-62 > 100 µM

O=C1c2scc(-c3ccccc3)c2-n2cccc21
inactive: 786-0 13.9 µM | A549 18.5 µM | DU-145 26.3 µM | Hs-578T 4.59 µM | M14 18 µM | MDA-MB-435 14.5 µM | MDA-N 16.1 µM | NCI-H460 31.1 µM | OVCAR-3 16.3 µM | OVCAR-4 75.9 µM | OVCAR-5 21 µM | RPMI-8226 5 µM | SK-MEL-28 15.2 µM | SK-OV-3 19.3 µM | SNB-19 15.9 µM | SR 13 µM | T47D 17.7 µM | UACC-62 17.9 µM

From ChEMBL document CHEMBL1201862, “PubChem BioAssay data set” (2004)
